The record followed here is patent US7863449B2, “Modulators of muscarinic receptors” (Vertex Pharmaceuticals Incorporated, priority 2004, dated 2011).

For orientation: Emax means the size of the effect at its maximum, as opposed to the concentration needed.

The target of experiment [1] is T1, M1 muscarinic receptor (Homo sapiens, UniProt P11229).
T1 construct: expressed in transfected cells; host or cells: CHO (M1-CHO)
T1 sequence (P11229 1-460): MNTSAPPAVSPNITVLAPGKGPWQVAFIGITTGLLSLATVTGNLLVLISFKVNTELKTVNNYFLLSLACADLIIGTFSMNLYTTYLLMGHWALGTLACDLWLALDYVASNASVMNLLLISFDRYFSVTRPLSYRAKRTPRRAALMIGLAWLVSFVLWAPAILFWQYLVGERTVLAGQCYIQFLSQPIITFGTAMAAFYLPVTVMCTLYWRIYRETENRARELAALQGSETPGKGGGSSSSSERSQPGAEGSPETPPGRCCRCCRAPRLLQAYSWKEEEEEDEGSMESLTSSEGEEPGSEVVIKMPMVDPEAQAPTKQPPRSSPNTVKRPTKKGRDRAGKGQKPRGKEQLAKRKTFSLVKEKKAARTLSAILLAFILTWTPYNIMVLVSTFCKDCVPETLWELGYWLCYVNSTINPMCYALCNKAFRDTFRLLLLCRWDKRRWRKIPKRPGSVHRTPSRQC
The experiment can be described thus: Functional mobilization of intracellular calcium (FLIPR), M1-CHO cells. In kind it is cell-based. The following applies: for Emax: 100% efficacy is the maximum response obtained using Carbachol as a control; for M1 Activity: M1-CHO cells, FLIPR calcium mobilization. As for the experimental part: (§1) Functional Mobilization of Intracellular Calcium to Determine Muscarinic Receptor Activity:
(§2) CHO cells expressing muscarinic receptors (M1 to M5) are grown as monolayers in tissue culture flasks at 37° C. in a humidified atmosphere containing 5% CO2 and passaged every 3-5 days. The growth media is Dulbecco's modified eagles medium (DMEM, Gibco Cat# 12430-054), containing 25 mM Hepes and supplemented with Fetal Bovine Serum (Hyclone, cat# SH30071.03), 0.1 mM of MEM non-essential amino acids (GIBCO, Cat# 11140-050), 1 mM MEM Sodium Pyruvate (GIBCO Cat# 11360-070) and 100 units/ml of Penicillin G and 100 μg/ml of Streptomycin (GIBCO Cat# 15140-122). The recombinant muscarinic receptor cell lines are grown under antibiotic pressure with media containing 25 μg/ml zeocin and 500 μg/ml G418 (M1-CHO), 4 μg/ml puromycin, 50 μg/ml zeocin and 2.5 μg/ml blasticidin (M2 and M4-CHO) or 50 μg/ml zeocin and 4 μg/ml puromycin (M3 and M5-CHO).
(§3) Cells are harvested at 80-90% confluence using Versene (GIBCO Cat# 15040-066), collected by centrifugation and seeded 18-24 hrs prior to running the calcium assay at a density of 5,000-10,000 cells/well in […], clear-bottomed 384-well plates (BD Biocoat, poly-D-lysine, Cat#356663). The day of the experiment, the cells are washed with a plate washer (Bioteck Instruments, ELX 405) using bath1 buffer (140-mM NaCl, 4.5-mM KCl, 2-mM CaCl2, 1-mM MgCl2, 10-mM Hepes-Na, 10-mM Glucose, pH 7.4, with NaOH) containing 1 mM Probenecid. Next, the calcium dye Fluo-3 (25 μl/well of Fluo-3 AM at 4 μM, Molecular Probes F-1241, in Bath 1 buffer containing 1 mM Probenecid) is added to the 25 μl of Bath 1 remaining in each well after the plate wash and the dye is loaded at 37° C. in the tissue culture incubator for 60-90 min. The fluorescent dye is removed using the plate washer with Bath 1 containing 1 mM Probenecid, leaving 25 μl/well of this solution after the wash. Alternatively, cells can be loaded with the calcium indicator from Molecular Devices (Calcium 3 Assay Reagents, Cat # R7181) adding 5 μl of a 5× solution dye in Bath 1 containing 1 mM Probenecid (10 ml per dye flask cat# R7182 to generate a solution 20×) to 20 μl of the same buffer. After loading for 60 min, the experiment can be run without having to remove the dye.
(§4) Compounds are prepared at a 2× fold concentration in a 96-well plate (round bottom, Costar Corning cat# 3656), by reconstituting the pre-spotted compounds in bath 1 containing 1 mM probenecid. The final concentration DMSO is 0.5%, and the amount of DMSO is normalized across the assay plate. To determine an agonist action of the compounds on muscarinic receptors, the reconstituted compounds are added (25 μl compound/well) to the cell assay plate (containing 25 μl/well) using the multi-channel robotic system of the FLIPR 3 Instrument (Molecular Devices, Sunnyvale, Calif.). To determine a functional inhibitory action of the compounds on muscarinic receptors, the reconstituted compounds are added (25 μl compound/well) to the assay plate and pre-incubated for 15 min prior to adding 25 μl of Carbachol at 3× the EC80 for each muscarinic subtype. Alternatively, the compounds can be co-applied simultaneously with the agonist. In both assay modes, the fluorescence is recorded for 60 sec (excitation wavelength is […] and emission wavelength 540 nm) using the FLIPR 3 instrument.
(§5) The potency, efficacy and selectivity of the muscarinic compounds were evaluated by screening the compound activity across the whole family (M1 to M5 cells). Compounds were also screened for activity on other proteins such as other GPCRs and ion channels to determine selectivity on M4 receptors.
(Calcium assays in cells follow changes in intracellular calcium, usually with a dye or a luminescent sensor.)

Experiment [2] deals with T2, M4 muscarinic receptor (Homo sapiens, UniProt P08173).
T2 construct: expressed in transfected cells; host or cells: CHO (M4-CHO)
T2 sequence (P08173 1-479): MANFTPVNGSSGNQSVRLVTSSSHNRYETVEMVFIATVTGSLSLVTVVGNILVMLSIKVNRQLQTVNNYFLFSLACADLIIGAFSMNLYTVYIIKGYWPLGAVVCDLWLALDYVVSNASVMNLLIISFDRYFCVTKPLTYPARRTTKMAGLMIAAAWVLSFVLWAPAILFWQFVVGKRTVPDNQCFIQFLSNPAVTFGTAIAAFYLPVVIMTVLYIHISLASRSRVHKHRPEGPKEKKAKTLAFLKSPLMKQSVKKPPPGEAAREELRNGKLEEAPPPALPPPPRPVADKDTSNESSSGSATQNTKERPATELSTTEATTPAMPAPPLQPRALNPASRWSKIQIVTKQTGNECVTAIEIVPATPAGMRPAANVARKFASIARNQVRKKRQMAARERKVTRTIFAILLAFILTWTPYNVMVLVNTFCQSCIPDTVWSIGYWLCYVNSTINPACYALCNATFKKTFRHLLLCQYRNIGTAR
The experiment can be described thus: Functional mobilization of intracellular calcium (FLIPR), M4-CHO cells. The following applies: for Emax: 100% efficacy is the maximum response obtained using Carbachol as a control; for M4 Activity: M4-CHO cells, FLIPR calcium mobilization. It is filed as cell-based. The protocol:
as §1, §2, §3, §4, §5

Turning to `CN(C)C(=O)N1Cc2ccccc2C2(CCN(C3CC4CCC(C3)N4C(=O)O[C@@H]3CCOC3)CC2)C1` (stereo partly drawn) [compound 48, (R)-tetrahydrofuran-3-yl 3-(2-(dimethylcarbamoyl)-2,3-dihydro-1H -spiro[isoquinoline-4,4′-piperidine]-1′-yl)-8-azabicyclo[3.2.1]octane-8-carboxylate], in experiment [1], the Emax lay within 25 to 100% and the “M1 Activity” value is listed as “+++ (activity was measured to be less than 1.0 μM)”. For the same compound, in experiment [2], the Emax is 25 to 100% and the “M4 Activity” value is “+++ (activity was measured to be less than 1.0 μM)”.
Regarding `COC(=O)N1CC(CN2CCC3(CC2)CN(C(C)=O)Cc2ccccc23)C1` [compound 50], in experiment [1], the Emax is < 25% and the “M1 Activity” value is reported as “+ (activity was measured to be greater than 5.0 μM)”. Further, in experiment [2], the Emax is < 25% and the “M4 Activity” value is “+ (activity was measured to be greater than 5.0 μM)”.
Consider `CCOC(=O)N1CCC(CN2CCC3(CC2)CN(C(=O)Nc2ccccc2)Cc2ccccc23)CC1` [compound 51], for which, in experiment [1], the Emax fell in the range of 25 to 100% and the “M1 Activity” value is reported as “+++ (activity was measured to be less than 1.0 μM)”. In experiment [2], the Emax is 25 to 100% and the “M4 Activity” value was “+++ (activity was measured to be less than 1.0 μM)”.
On to `O=C1c2ccccc2C2(CCN(CC3CCCCC3)CC2)N1Cc1ccccc1` [compound 52], for which, in experiment [1], the Emax fell in the range of 25 to 100% and the “M1 Activity” value is recorded as “+ (activity was measured to be greater than 5.0 μM)”. For the same compound, in experiment [2], the maximum response (Emax) was < 25% and the “M4 Activity” value was “+ (activity was measured to be greater than 5.0 μM)”.
For the compound `CCOC(=O)N1CCC(N2CCC3(CC2)CN(C(=O)NC(C)(C)C)Cc2ccccc23)CC1` [compound 53], in experiment [1], the Emax is 25 to 100% and the “M1 Activity” value is reported as “+++ (activity was measured to be less than 1.0 μM)”. In addition, in experiment [2], the Emax was in the range of 25 to 100% and the “M4 Activity” value was “+++ (activity was measured to be less than 1.0 μM)”.
Take `O=C1NC2(CCN(CC3CCCCC3)CC2)c2ccccc21` [compound 54]: in experiment [1], the Emax was < 25% and the “M1 Activity” value was “+ (activity was measured to be greater than 5.0 μM)”. Moreover, in experiment [2], the Emax fell in the range of 25 to 100% and the “M4 Activity” value is reported as “+ (activity was measured to be greater than 5.0 μM)”.
On to `CCCCOC(=O)N1Cc2ccccc2C2(CCN(C3CCN(C(=O)OCC)CC3)CC2)C1` [compound 56], for which, in experiment [1], the Emax fell in the range of 25 to 100% and the “M1 Activity” value is on record as “+++ (activity was measured to be less than 1.0 μM)”. In experiment [2], the Emax lay within 25 to 100% and the “M4 Activity” value is reported as “+++ (activity was measured to be less than 1.0 μM)”.
With `CC(=O)N1Cc2ccccc2C2(CCN(CC3CCCCO3)CC2)C1` (centres unmarked) [compound 58], in experiment [1], the Emax was < 25% and the “M1 Activity” value is on record as “+ (activity was measured to be greater than 5.0 μM)”. In experiment [2], the Emax is < 25% and the “M4 Activity” value is listed as “+ (activity was measured to be greater than 5.0 μM)”.
As for `CCC(=O)Oc1ccc(CN2CCC3(CC2)CN(C(C)=O)Cc2ccccc23)cc1` [compound 59], in experiment [1], the Emax was < 25% and the “M1 Activity” value was “+ (activity was measured to be greater than 5.0 μM)”. Besides, in experiment [2], the Emax is < 25% and the “M4 Activity” value is given as “+ (activity was measured to be greater than 5.0 μM)”.
`CCCCNC(=O)N1Cc2ccccc2C2(CCN(C3CC4CCC(C3)N4C(=O)OCC)CC2)C1` (centres unmarked) [compound 61]: in experiment [1], the Emax is 25 to 100% and the “M1 Activity” value was “+++ (activity was measured to be less than 1.0 μM)”. Further, in experiment [2], the Emax is 25 to 100% and the “M4 Activity” value is recorded as “+++ (activity was measured to be less than 1.0 μM)”.
For `CCOC(=O)N1CCC(CN2CCC3(CC2)CN(C(=O)CC)Cc2ccccc23)CC1` [compound 63], in experiment [1], the Emax lay within 25 to 100% and the “M1 Activity” value is listed as “+++ (activity was measured to be less than 1.0 μM)”. Besides, in experiment [2], the Emax lay in the range of 25 to 100% and the “M4 Activity” value was “+++ (activity was measured to be less than 1.0 μM)”.
